# According to patent publication US12097199B2, “Administration of SUMO-activating enzyme inhibitor and anti-CD20 antibodies” (Takeda Pharmaceutical Company Limited, priority 2018, dated 2024):
# Legend:
# [1] = system: OCI-Ly10 human diffuse large B-cell lymphoma xenograft; assay: Study 1: OCI-Ly10 xenograft model, in vivo tumor efficacy; parameters: species or system SCID mice; settings: for TGI %: Day 21; for dAUC: unit assumed
# Method: OCI-Ly 10 Study 1: OCI-Ly 10 is a human diffuse large B-cell lymphoma cell-line derived xenograft. 6 week old female SCID mice (Beijing HFK Bioscience Co., Ltd.) were inoculated subcutaneously in the right flank (cell suspension) with 4×10^6 OCI-Ly10 cells. When the mean tumor volume reached approximately 200 mm^3, the animals were randomized into treatment and control groups (n=7/group). Tumor growth inhibition and body weight change were calculated on Day 21 of treatment.
# (§1) Final doses received were 25 mg/kg or 15 mg/kg, respectively.
# (§2) Tumors were measured twice weekly using vernier calipers. Tumor volumes were calculated using standard procedures V=W^2×L/2, where V=volume, W=width, and L=length for the tumor xenograft. […] Tumor size and body weight were measured twice a week for the duration of the study. Mice were euthanized when the average tumor volume of a treatment or control group reached approximately 1000 mm^3 or when an individual tumor exceeded the humane end-point for size.
# (§3) These values were compared across treatment groups to assess whether the differences in the trends over time were statistically significant. To compare pairs of treatment groups, the following mixed-effects linear regression model was fit to the data using the maximum likelihood method: Yijk−Yi0k=Yi0k+treati+dayi+dayj^2+(treat*day)ij+(treat*day^2)ij+eijk (1) where Yijk is the log10 tumor value at the j^th time point of the k^th animal in the i^th treatment, Yi0k is the day 0 (baseline) log10 tumor value in the k^th animal in the i^th treatment, day, was the median-centered time point and (along with dayj^2) was treated as a continuous variable, and eijk is the residual error. A spatial power law covariance matrix was used to account for the repeated measurements on the same animal over time. Interaction terms as well as dayj^2 terms were removed if they were not statistically significant.
# (§4) The predicted differences in the log tumor values (Yijk−Yi0k, which can be interpreted as log10 (fold change from day 0)) were taken from the above models to calculate mean AUC values for each treatment group. A dAUC value was then calculated as: […]
# (§5) For synergy analyses, the observed differences in the log tumor values were used to calculate AUC values for each animal. […] The AUC for the control, or vehicle, group was calculated using the predicted values from the pairwise models described above. We defined a measure of synergy as follows:
# (§6) The effect was classified into four different categories. It was considered synergistic if the synergy score was less than 0 and additive if the synergy score wasn't statistically different from 0.
# (§7) One group served as the vehicle-treated group (Group 1) receiving IV treatment with the vehicle for I-263a (20% HPβCD) on a QW schedule.
# [2] = system: OCI-Ly10 human diffuse large B-cell lymphoma xenograft; assay: Study 2: OCI-Ly10 xenograft model, in vivo tumor efficacy; parameters: species or system SCID mice; settings: for TGI %: Day 21
# Method: OCI-Ly10 Study 2: OCI-Ly 10 is a human diffuse large B-cell lymphoma cell-line derived xenograft. 8 week old female SCID mice (Beijing HFK Bioscience Co., Ltd.) were inoculated subcutaneously in the right flank (cell suspension) with 4×10^6 OCI-Ly 10 cells. When the mean tumor volume reached approximately 200 mm^3, the animals were randomized into treatment and control groups (n=8/group). Tumor growth inhibition and body weight change were calculated on Day 21 of treatment.
# Final doses received were 10 mg/kg or 5 mg/kg, respectively.
# as §2, §3, §4, §5, §6
# (§8) In the OCI-Ly 10 diffuse large B-cell lymphoma xenograft model, mice were inoculated, randomized on Day 0 (30 days post inoculation), and treatments began on Day 1 for all groups. […] One group served as the vehicle-treated group (Group 1) receiving IV treatment with the vehicle for I-263a (20% HPβCD) on a QW schedule.
# [3] = system: WSU-DLCL2 human diffuse large B-cell lymphoma xenograft; assay: Study 3: WSU-DLCL2 xenograft model, in vivo tumor efficacy; parameters: species or system SCID mice
# Method: WSU-DLCL2 Study 3: WSU-DLCL2 is a human diffuse large B-cell lymphoma cell-line derived xenograft. 7 week old female SCID mice (Charles River Laboratories) were inoculated subcutaneously in the right flank (cell suspension with 4.0×10^6 cells). When the mean tumor volume reached approximately 200 mm^3, the animals were randomized into treatment groups and control groups (n=8/group). Tumor growth inhibition and body weight change were calculated on Day 21 of treatment. Tumor volumes below the humane end-point for size were continually monitored following the end of treatment (post-treatment period) for an additional week.
# as §2, §3, §4, §5, §6
# as §8, with “WSU-DLCL2” for “OCI-Ly 10”, “(8” for “(30”
# [4] = system: TMD8 human diffuse large B-cell lymphoma xenograft; assay: Study 4: TMD8 xenograft model, in vivo tumor efficacy; parameters: species or system SCID mice; settings: for TGI %: Day 18
# Method: TMD8 Study 4: TMD8 is a human diffuse large B-cell lymphoma cell-line derived xenograft. 8 week old female SCID mice (Beijing HFK Bioscience Co., Ltd) were inoculated subcutaneously in the right flank (cell suspension with 4×10^6 cells). When the mean tumor volume reached approximately 190 mm^3, the animals were randomized into treatment groups and control groups (n=8/group). Tumor growth inhibition and body weight change were calculated on Day 18 of treatment. Tumor volumes below the humane end-point for size were continually monitored following the end of treatment (post-treatment period) for an additional week.
# as §1, §2, §3, §4, §5, §6
# as §8, with “TMD8” for “OCI-Ly 10”, “(10” for “(30”
# [5] = system: PHTX-166L human patient-derived B-cell lymphoma primary xenograft; assay: Study 5: PHTX-166L primary xenograft model, in vivo tumor efficacy; parameters: species or system mice; settings: for TGI %: Day 11
# Method: PHTX-166L Study 5: PHTX-166L is a human patient-derived B-cell lymphoma primary xenograft. Small tumor pieces measuring approximately 2 mm×2 mm were implanted subcutaneousy on the right flank via trocar injection. When the mean tumor volume reached approximately 160 mm^3, the animals were randomized into treatment groups and control groups (n=7/group). Tumor growth inhibition and body weight change were calculated on Day 11 of treatment. Tumor volumes below the humane end-point for size were continually monitored following the end of treatment (post-treatment period) until Day 146 post treatment initiation.
# as §2, §3, §4, §5, §6
# as §8, with “PHTX-166L patient-derived primary” for “OCI-Ly 10 diffuse large”, “(24” for “(30”
# [6] = system: PHTX-166L human patient-derived primary B-cell lymphoma xenograft; assay: Study 6: PHTX-166L primary xenograft model, in vivo tumor efficacy; parameters: species or system mice
# Method: Small tumor pieces measuring approximately 2 mm×2 mm were implanted subcutaneousy on the right flank via trocar injection.
# as §2, §3, §4, §5, §6, §7
# SUMO-activating enzyme = SUMO-activating enzyme (Homo sapiens, UniProt Q9UBT2); assay: Biochemical assays of SUMO-activating enzyme inhibition
# Chain of SUMO-activating enzyme (Q9UBT2 whole entry): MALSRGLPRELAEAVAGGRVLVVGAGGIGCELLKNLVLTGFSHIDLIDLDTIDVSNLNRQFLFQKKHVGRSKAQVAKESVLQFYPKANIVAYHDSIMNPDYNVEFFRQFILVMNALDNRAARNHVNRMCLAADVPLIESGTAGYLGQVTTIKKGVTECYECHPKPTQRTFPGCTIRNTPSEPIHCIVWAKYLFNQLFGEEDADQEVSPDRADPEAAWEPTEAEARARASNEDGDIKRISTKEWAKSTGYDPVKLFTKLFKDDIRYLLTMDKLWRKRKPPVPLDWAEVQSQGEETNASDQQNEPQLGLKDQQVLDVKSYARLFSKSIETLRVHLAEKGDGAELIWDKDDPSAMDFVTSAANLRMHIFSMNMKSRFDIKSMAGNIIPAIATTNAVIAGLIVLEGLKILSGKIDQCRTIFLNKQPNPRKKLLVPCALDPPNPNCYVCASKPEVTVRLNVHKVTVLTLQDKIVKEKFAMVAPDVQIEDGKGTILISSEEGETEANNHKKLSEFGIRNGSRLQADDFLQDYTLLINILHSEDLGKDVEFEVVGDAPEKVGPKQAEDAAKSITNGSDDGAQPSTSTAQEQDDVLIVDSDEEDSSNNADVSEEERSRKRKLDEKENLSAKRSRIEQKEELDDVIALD
# Chain of SUMO-activating enzyme (Q9UBE0 whole entry partner): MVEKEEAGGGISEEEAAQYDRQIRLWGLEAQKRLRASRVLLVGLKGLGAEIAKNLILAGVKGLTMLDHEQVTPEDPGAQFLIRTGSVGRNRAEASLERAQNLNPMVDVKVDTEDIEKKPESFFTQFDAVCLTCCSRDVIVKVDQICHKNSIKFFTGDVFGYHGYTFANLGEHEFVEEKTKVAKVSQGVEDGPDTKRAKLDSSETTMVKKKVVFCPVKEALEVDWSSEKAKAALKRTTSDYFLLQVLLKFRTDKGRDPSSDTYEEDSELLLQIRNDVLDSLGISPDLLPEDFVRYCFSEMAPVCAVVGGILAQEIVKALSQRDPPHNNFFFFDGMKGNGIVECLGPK
# Chain of SUMO-activating enzyme (P63165 1-97 partner limits assumed): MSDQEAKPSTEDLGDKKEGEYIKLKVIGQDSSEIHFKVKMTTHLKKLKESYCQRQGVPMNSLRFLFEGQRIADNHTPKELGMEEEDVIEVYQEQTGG
# Text: (§9) SAE inhibitors, as disclosed herein, are described, for example, in US 2016/0009744 and U.S. Pat. No. 9,695,154. They may be prepared by methods known to one skilled in the art and/or according to the methods described in US 2016/0009744 and U.S. Pat. No. 9,695,154, which is hereby incorporated by reference in its entirety. Central to the mechanism of action of useful SAE inhibitors, such as Compound I-263a, in combinations and methods of the present disclosure is production of type 1 IFNs and induction of an innate immune response with activation of both natural killer (NK) cells and macrophages.
# [7] = system: SUMO-activating enzyme and SUMOylation; assay: Inhibition of SAE and SUMOylation in cultured tumor cell lines; assay type: cell-based; settings: cultured mouse and human tumor cell lines
# Text: as §9
# [8] = single-agent I-263a (25 and 15 mg/kg)
# [9] = Group C: I-263a 12.5 mg/kg IV QW
# [10] = Group B: I-263a 5.0 mg/kg IV QW
smiles,measurement,setting,value
"Cc1sc(C(=O)c2cncnc2N[C@@H]2C[C@H](COS(N)(=O)=O)[C@@H](O)C2)cc1[C@@H]1NCCc2ccc(Cl)cc21 [Compound I-263a, [(1R,2S,4R)-4-{[5-({4-[(1R)-7-chloro-1,2,3,4-tetrahydroisoquinolin-1-yl]-5-methyl-2-thienyl}carbonyl)pyrimidin-4-yl]amino}-2-hydroxycyclopentyl]methyl sulfamate]",Days to 1000 mm^3 MTV,[1]; Group B: I-263a 25 mg/kg IV QW,39 days
same,Tumor volume on Day 21 (±SEM),[1]; Group B: I-263a 25 mg/kg IV QW,409.7 ± 19.2 mm^3
same,TGI %,[1]; Group B: I-263a 25 mg/kg IV QW,31.3%
same,dAUC,[1]; Group B: I-263a 25 mg/kg IV QW,23.6%
same,Days to 1000 mm^3 MTV,[1]; Group C: I-263a 15 mg/kg IV QW,37.6 days
same,Tumor volume on Day 21 (±SEM),[1]; Group C: I-263a 15 mg/kg IV QW,443.7 ± 12.3 mm^3
same,TGI %,[1]; Group C: I-263a 15 mg/kg IV QW,25.6%
same,dAUC,[1]; Group C: I-263a 15 mg/kg IV QW,21.4%
same,Day by which all mice were euthanized (group reached 1000 mm^3 or humane end-point for size),[1]; [8],≤ 120 days
same,Days to 1000 mm^3 MTV,[2]; Group B: I-263a 10 mg/kg IV QW,32.1 days
same,Tumor volume on Day 21 (±SEM),[2]; Group B: I-263a 10 mg/kg IV QW,706.9 ± 51.3 mm^3
same,dAUC,[2]; Group B: I-263a 10 mg/kg IV QW,25.6
same,TGI %,[2]; Group B: I-263a 10 mg/kg IV QW,41.3%
same,Days to 1000 mm^3 MTV,[2]; Group C: I-263a 5 mg/kg IV QW,28.7 days
same,Tumor volume on Day 21 (±SEM),[2]; Group C: I-263a 5 mg/kg IV QW,759.3 ± 33.2 mm^3
same,dAUC,[2]; Group C: I-263a 5 mg/kg IV QW,26.8
same,TGI %,[2]; Group C: I-263a 5 mg/kg IV QW,37%
same,Day by which all mice were euthanized (group reached 1000 mm^3 or humane end-point for size),[2]; single-agent I-263a (10 and 5 mg/kg),≤ 35 days
same,Days to 1000 mm^3 MTV,[3]; Group B: I-263a 5 mg/kg IV QW,17.2 days
same,Tumor volume on Day 21 (±SEM),[3]; Group B: I-263a 5 mg/kg IV QW,1340.3 ± 188.1 mm^3
same,dAUC,[3]; Group B: I-263a 5 mg/kg IV QW,28.1
same,TGI %,"[3]; Group B: I-263a 5 mg/kg IV QW, Day 21",37.6%
same,Day by which all mice were euthanized (group reached 1000 mm^3 or humane end-point for size),[3]; single-agent I-263a 5 mg/kg,≤ 24 days
same,Days to 1000 mm^3 MTV,[4]; Group B: I-263a 25 mg/kg IV QW,14.1 days
same,Tumor volume on Day 18 (±SEM),[4]; Group B: I-263a 25 mg/kg IV QW,1297.4 ± 120.2 mm^3
same,dAUC,[4]; Group B: I-263a 25 mg/kg IV QW,13.6
same,TGI %,[4]; Group B: I-263a 25 mg/kg IV QW,27.8%
same,Days to 1000 mm^3 MTV,[4]; Group C: I-263a 15 mg/kg IV QW,12.8 days
same,Tumor volume on Day 18 (±SEM),[4]; Group C: I-263a 15 mg/kg IV QW,1604.1 ± 144.7 mm^3
same,dAUC,[4]; Group C: I-263a 15 mg/kg IV QW,10.1
same,TGI %,[4]; Group C: I-263a 15 mg/kg IV QW,10.7%
same,Day by which all mice were euthanized (group reached 1000 mm^3 or humane end-point for size),[4]; [8],≤ 120 days
same,Days to 1000 mm^3 MTV,[5]; Group B: I-263a 25 mg/kg IV QW,>18 days
same,dAUC,[5]; Group B: I-263a 25 mg/kg IV QW,45.0
same,Tumor volume on Day 11 (±SEM),[5]; Group B: I-263a 25 mg/kg IV QW (Days 1 and 8),540.2 ± 58.5 mm^3
same,TGI %,[5]; Group B: I-263a 25 mg/kg IV QW,72%
same,Days to 1000 mm^3 MTV,[5]; [9],13.2 days
same,dAUC,[5]; [9],35.4
same,Tumor volume on Day 11 (±SEM),[5]; Group C: I-263a 12.5 mg/kg IV QW (Days 1 and 8),758.2 ± 104.7 mm^3
same,TGI %,[5]; [9],60.6%
same,Days to 1000 mm^3 MTV,[6]; [10],9.1 days
same,dAUC,[6]; [10],34.3
same,Tumor volume on Day 9 (±SEM),[6]; Group B: I-263a 5.0 mg/kg IV QW (Days 1 and 8),992.2 ± 115.2 mm^3
same,TGI %,"[6]; Group B: I-263a 5.0 mg/kg IV QW, Day 9",51.4%
same,Inhibition of SUMO-activating enzyme activity,SUMO-activating enzyme; mechanism-based inhibitor forming a covalent adduct with SUMO,potently inhibits enzyme activity
same,Selectivity for SUMO-activating enzyme,"SUMO-activating enzyme; over ubiquitin-activating enzyme, Nedd8-activating enzyme, and autophagy related 7 enzyme",Strong selectivity
same,Inhibition of SUMO-activating enzyme and SUMOylation in cells,[7],Selective and potent inhibition
